# Reference: ChEMBL document CHEMBL5723585, “Data for DCP probe JNJ-54082730” (2024)
# Active and inactive are the calls of the source. The rule behind the calls is not given here.
# How the values were obtained:
# [1] = biological target: Beta-1 adrenergic receptor (Homo sapiens) (UniProt P08588); experiment: beta 1 Eurofins-Cerep binding assay; set-up: ligand concentration 0.3 nM; details: filed as agonist, Compound concentration 10.0 uM
# [2] = biological target: B2 bradykinin receptor (Homo sapiens) (UniProt P30411); experiment: B2 Eurofins-Cerep binding assay; set-up: ligand concentration 0.3 nM; details: filed as agonist, Compound concentration 10.0 uM
# Chain of B2 bradykinin receptor (Homo sapiens) (P30411 whole entry): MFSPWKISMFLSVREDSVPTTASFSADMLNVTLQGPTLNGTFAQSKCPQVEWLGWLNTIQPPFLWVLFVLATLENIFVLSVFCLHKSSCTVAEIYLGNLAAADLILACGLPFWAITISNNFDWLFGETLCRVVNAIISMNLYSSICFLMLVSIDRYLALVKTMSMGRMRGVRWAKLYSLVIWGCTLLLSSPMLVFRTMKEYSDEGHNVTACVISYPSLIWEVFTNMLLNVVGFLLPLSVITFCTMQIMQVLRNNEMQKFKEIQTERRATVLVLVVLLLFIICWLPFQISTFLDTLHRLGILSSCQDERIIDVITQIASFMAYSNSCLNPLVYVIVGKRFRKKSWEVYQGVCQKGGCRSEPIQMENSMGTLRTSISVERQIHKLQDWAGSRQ
# [3] = biological target: 5-hydroxytryptamine receptor 2A (Homo sapiens) (UniProt P28223); experiment: 5-HT2A Eurofins-Cerep binding assay; set-up: ligand concentration 0.5 nM; details: filed as antagonist, Compound concentration 10.0 uM
# Chain of 5-hydroxytryptamine receptor 2A (Homo sapiens) (P28223 whole entry): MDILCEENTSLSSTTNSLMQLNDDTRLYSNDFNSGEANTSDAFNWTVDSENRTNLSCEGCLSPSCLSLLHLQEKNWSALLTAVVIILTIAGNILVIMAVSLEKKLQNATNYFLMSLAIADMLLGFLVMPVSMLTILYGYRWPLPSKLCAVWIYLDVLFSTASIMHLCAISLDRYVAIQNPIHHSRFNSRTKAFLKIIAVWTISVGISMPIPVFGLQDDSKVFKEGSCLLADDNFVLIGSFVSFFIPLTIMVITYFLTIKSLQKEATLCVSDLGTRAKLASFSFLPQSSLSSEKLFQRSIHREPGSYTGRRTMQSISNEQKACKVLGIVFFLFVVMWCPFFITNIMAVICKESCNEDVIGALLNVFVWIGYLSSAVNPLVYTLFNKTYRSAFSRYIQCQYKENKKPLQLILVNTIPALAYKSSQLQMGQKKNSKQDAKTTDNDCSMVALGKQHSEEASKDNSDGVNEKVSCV
# [4] = biological target: Muscarinic acetylcholine receptor M2 (Homo sapiens) (UniProt P08172); experiment: M2 Eurofins-Cerep binding assay; set-up: ligand concentration 2 nM; details: filed as antagonist, Compound concentration 10.0 uM
# [5] = biological target: 5-hydroxytryptamine receptor 6 (Homo sapiens) (UniProt P50406); experiment: 5-HT6 Eurofins-Cerep binding assay; set-up: ligand concentration 2 nM; details: filed as agonist, Compound concentration 10.0 uM
# Chain of 5-hydroxytryptamine receptor 6 (Homo sapiens) (P50406 whole entry): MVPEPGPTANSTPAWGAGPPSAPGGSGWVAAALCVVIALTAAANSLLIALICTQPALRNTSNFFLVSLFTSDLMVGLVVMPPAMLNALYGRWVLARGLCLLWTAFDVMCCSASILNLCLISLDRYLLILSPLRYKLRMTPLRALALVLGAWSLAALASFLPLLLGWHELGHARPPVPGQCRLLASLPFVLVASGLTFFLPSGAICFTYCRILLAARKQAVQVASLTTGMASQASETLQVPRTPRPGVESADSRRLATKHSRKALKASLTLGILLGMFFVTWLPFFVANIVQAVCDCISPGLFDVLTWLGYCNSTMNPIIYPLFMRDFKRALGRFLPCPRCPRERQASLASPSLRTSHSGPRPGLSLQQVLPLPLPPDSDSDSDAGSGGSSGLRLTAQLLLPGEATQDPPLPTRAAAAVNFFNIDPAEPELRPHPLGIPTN
# [6] = biological target: High affinity cGMP-specific 3',5'-cyclic phosphodiesterase 9A (Homo sapiens, UniProt O76083); experiment: IC50 of hPDE9A in the PDE screen at 1.0 µM
# Chain of High affinity cGMP-specific 3',5'-cyclic phosphodiesterase 9A (O76083 whole entry): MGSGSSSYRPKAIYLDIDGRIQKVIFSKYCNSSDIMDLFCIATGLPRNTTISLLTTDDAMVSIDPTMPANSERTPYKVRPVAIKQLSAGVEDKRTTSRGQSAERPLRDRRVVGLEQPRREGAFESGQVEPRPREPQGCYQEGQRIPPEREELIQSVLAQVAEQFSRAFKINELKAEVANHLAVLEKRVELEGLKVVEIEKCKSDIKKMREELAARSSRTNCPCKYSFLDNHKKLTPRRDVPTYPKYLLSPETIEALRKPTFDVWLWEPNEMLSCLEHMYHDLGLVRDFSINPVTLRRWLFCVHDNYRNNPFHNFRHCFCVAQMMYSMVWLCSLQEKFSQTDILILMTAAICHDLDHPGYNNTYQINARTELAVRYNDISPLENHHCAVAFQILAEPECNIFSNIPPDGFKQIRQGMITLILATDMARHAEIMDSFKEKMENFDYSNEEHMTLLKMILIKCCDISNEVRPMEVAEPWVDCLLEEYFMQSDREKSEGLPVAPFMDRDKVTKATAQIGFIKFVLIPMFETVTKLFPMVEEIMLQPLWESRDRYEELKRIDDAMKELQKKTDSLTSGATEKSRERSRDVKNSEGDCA
# Rattus norvegicus [7] = species on record: Rattus norvegicus; experiment: alpha 1 (non-selective) Eurofins-Cerep binding assay; format: protein assay; set-up: ligand concentration 0.25 nM; details: filed as antagonist, Compound concentration 10.0 uM
# [8] = IC50 of bovine retina PDE6 in the PDE screen at 1.0 µM; set-up: species or system Bos taurus
# [9] = biological target: Cholecystokinin receptor type A (Homo sapiens) (UniProt P32238); experiment: CCK1 (CCKA) Eurofins-Cerep binding assay; set-up: ligand concentration 0.08 nM; details: filed as agonist, Compound concentration 10.0 uM
# [10] = biological target: Muscarinic acetylcholine receptor M3 (Homo sapiens) (UniProt P20309); experiment: M3 Eurofins-Cerep binding assay; set-up: ligand concentration 0.2 nM; details: filed as antagonist, Compound concentration 10.0 uM
# [11] = biological target: Galanin receptor type 2 (Homo sapiens) (UniProt O43603); experiment: GAL2 Eurofins-Cerep binding assay; set-up: ligand concentration 0.05 nM; details: filed as agonist, Compound concentration 10.0 uM
# [12] = biological target: 5-hydroxytryptamine receptor 2B (Homo sapiens) (UniProt P41595); experiment: 5-HT2B Eurofins-Cerep binding assay; details: filed as agonist, Compound concentration 10.0 uM
# [13] = biological target: Vasopressin V1a receptor (Homo sapiens) (UniProt P37288); experiment: V1a Eurofins-Cerep binding assay; set-up: ligand concentration 0.3 nM; details: filed as agonist, Compound concentration 10.0 uM
# [14] = biological target: Mu-type opioid receptor (Homo sapiens) (UniProt P35372); experiment: mu (MOP) Eurofins-Cerep binding assay; set-up: ligand concentration 0.5 nM; details: filed as agonist, Compound concentration 10.0 uM
# Chain of Mu-type opioid receptor (Homo sapiens) (P35372 whole entry): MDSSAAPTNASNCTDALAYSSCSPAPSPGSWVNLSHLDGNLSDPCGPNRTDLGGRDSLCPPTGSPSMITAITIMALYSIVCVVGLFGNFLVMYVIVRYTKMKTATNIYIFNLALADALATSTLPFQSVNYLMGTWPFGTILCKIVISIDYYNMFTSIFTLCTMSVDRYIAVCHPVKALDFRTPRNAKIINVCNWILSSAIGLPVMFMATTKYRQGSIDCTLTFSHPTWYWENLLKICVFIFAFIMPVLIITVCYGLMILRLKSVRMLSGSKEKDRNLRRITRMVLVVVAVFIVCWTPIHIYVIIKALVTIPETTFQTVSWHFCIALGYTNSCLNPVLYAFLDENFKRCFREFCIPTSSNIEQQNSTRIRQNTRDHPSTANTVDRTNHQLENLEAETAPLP
# [15] = biological target: Substance-K receptor (Homo sapiens) (UniProt P21452); experiment: NK2 Eurofins-Cerep binding assay; set-up: ligand concentration 0.1 nM; details: filed as agonist, Compound concentration 10.0 uM
# Chain of Substance-K receptor (Homo sapiens) (P21452 whole entry): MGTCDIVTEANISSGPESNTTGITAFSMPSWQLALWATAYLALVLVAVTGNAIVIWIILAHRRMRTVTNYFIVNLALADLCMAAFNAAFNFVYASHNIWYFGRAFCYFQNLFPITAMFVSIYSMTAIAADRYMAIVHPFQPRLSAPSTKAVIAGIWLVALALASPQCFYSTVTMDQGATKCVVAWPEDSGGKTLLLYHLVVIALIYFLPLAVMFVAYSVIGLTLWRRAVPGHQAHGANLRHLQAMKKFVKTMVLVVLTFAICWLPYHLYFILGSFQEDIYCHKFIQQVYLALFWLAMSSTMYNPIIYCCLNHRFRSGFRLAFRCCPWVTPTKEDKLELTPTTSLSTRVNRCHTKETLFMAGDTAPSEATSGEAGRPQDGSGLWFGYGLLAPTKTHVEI
# [16] = biological target: Adenosine receptor A3 (Homo sapiens) (UniProt P0DMS8); experiment: A3 Eurofins-Cerep binding assay; set-up: ligand concentration 0.15 nM; details: filed as agonist, Compound concentration 10.0 uM
# [17] = biological target: Type-1 angiotensin II receptor (Homo sapiens) (UniProt P30556); experiment: AT1 Eurofins-Cerep binding assay; details: filed as antagonist, Compound concentration 10.0 uM
# [18] = biological target: 5-hydroxytryptamine receptor 7 (Homo sapiens) (UniProt P34969); experiment: 5-HT7 Eurofins-Cerep binding assay; set-up: ligand concentration 4 nM; details: filed as agonist, Compound concentration 10.0 uM
# Chain of 5-hydroxytryptamine receptor 7 (Homo sapiens) (P34969 whole entry): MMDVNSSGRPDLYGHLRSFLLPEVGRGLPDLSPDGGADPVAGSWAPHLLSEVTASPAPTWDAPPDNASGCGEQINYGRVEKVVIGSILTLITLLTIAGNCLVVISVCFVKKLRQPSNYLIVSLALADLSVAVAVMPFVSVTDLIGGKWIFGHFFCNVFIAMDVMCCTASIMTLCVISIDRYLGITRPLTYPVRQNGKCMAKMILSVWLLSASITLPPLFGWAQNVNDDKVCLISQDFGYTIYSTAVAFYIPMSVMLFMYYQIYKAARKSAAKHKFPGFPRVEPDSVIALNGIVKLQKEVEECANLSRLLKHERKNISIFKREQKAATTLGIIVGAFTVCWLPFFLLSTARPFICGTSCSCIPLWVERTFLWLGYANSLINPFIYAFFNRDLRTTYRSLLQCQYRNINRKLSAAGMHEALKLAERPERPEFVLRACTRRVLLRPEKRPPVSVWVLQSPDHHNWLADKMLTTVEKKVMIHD
# [19] = biological target: Vasoactive intestinal polypeptide receptor 1 (Homo sapiens) (UniProt P32241); experiment: VPAC1 (VIP1) Eurofins-Cerep binding assay; set-up: ligand concentration 0.04 nM; details: filed as agonist, Compound concentration 10.0 uM
# Chain of Vasoactive intestinal polypeptide receptor 1 (Homo sapiens) (P32241 whole entry): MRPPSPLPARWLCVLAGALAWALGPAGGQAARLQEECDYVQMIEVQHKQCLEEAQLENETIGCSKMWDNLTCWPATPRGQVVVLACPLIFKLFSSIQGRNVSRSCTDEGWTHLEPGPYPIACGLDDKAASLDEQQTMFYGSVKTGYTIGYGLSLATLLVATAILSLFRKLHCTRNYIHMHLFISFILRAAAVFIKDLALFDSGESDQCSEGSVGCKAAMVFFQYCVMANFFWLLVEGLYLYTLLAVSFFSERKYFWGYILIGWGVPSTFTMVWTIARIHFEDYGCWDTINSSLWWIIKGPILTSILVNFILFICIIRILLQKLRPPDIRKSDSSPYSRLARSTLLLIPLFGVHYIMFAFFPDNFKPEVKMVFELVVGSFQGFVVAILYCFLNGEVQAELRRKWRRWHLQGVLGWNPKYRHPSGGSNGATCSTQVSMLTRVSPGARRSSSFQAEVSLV
# [20] = biological target: Melatonin receptor type 1A (Homo sapiens) (UniProt P48039); experiment: MT1 (ML1A) Eurofins-Cerep binding assay; set-up: ligand concentration 0.01 nM; details: filed as agonist, Compound concentration 10.0 uM
# [21] = biological target: Sodium-dependent noradrenaline transporter (Homo sapiens) (UniProt P23975); experiment: norepinephrine transporter Eurofins-Cerep binding assay; set-up: ligand concentration 1 nM; details: filed as antagonist, Compound concentration 10.0 uM
# [22] = biological target: 5-hydroxytryptamine receptor 3A (Homo sapiens) (UniProt P46098); experiment: 5-HT3 Eurofins-Cerep binding assay; set-up: ligand concentration 0.5 nM; details: filed as antagonist, Compound concentration 10.0 uM
# [23] = biological target: 5-hydroxytryptamine receptor 5A (Homo sapiens) (UniProt P47898); experiment: 5-HT5a Eurofins-Cerep binding assay; set-up: ligand concentration 1.5 nM; details: filed as agonist, Compound concentration 10.0 uM
# Chain of 5-hydroxytryptamine receptor 5A (Homo sapiens) (P47898 whole entry): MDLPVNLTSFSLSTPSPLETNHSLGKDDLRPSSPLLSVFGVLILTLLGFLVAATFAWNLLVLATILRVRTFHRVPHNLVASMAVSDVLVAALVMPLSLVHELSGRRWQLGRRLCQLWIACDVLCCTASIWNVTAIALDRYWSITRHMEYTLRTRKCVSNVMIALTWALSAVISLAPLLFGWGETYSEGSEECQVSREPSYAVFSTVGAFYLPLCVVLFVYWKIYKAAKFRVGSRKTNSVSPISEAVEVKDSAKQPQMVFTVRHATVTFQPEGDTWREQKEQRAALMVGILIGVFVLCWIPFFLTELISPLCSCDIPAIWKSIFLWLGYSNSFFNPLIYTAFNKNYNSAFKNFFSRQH
# Rattus norvegicus [24] = species on record: Rattus norvegicus; experiment: BZD (central) Eurofins-Cerep binding assay; details: filed as agonist, Compound concentration 10.0 uM
# [25] = biological target: High affinity 3',5'-cyclic-AMP phosphodiesterase 7A (Homo sapiens, UniProt Q13946); experiment: IC50 of hPDE7A1 in the PDE screen at 1.0 µM
# [26] = biological target: cGMP-dependent 3',5'-cyclic phosphodiesterase (Homo sapiens, UniProt O00408); experiment: Scintillation proximity assay (PDE2A) ( Mean (95% Confidence Interval) = 0.8 -1 nM; Ki = 0.7 nM)
# Chain of cGMP-dependent 3',5'-cyclic phosphodiesterase (O00408 whole entry): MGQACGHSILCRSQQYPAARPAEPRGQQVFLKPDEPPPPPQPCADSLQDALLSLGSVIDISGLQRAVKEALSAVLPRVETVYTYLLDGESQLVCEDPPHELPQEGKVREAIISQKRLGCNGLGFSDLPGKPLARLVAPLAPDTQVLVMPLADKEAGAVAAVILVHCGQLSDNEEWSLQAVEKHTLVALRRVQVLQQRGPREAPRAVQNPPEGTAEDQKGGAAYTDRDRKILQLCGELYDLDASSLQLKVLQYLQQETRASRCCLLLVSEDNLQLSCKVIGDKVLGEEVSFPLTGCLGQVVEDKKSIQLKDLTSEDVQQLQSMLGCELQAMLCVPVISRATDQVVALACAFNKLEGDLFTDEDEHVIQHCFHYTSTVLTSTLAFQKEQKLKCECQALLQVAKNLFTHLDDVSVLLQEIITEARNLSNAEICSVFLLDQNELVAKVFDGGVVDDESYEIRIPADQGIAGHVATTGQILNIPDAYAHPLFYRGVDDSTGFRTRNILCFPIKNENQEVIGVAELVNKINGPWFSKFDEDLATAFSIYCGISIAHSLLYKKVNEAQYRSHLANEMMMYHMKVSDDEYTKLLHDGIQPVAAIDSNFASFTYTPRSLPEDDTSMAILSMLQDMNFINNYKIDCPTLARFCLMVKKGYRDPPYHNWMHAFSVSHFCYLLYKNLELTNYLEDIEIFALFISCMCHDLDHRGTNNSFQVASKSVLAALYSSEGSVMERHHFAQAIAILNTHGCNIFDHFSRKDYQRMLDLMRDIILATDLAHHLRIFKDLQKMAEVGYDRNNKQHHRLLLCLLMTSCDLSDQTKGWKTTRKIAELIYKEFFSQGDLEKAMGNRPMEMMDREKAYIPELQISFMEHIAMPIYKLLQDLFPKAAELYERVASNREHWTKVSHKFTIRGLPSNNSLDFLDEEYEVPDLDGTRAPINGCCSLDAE
# [27] = biological target: D(2) dopamine receptor (Homo sapiens) (UniProt P14416); experiment: D2S (h) Eurofins-Cerep binding assay; set-up: ligand concentration 0.3 nM; details: filed as antagonist, Compound concentration 10.0 uM
# [28] = biological target: Kappa-type opioid receptor (Homo sapiens) (UniProt P41145); experiment: kappa (KOP) Eurofins-Cerep binding assay; details: filed as agonist, Compound concentration 10.0 uM
# [29] = biological target: Muscarinic acetylcholine receptor M1 (Homo sapiens) (UniProt P11229); experiment: M1 Eurofins-Cerep binding assay; set-up: ligand concentration 2 nM; details: filed as antagonist, Compound concentration 10.0 uM
# [30] = biological target: High affinity cAMP-specific and IBMX-insensitive 3',5'-cyclic phosphodiesterase 8A (Homo sapiens, UniProt O60658); experiment: IC50 of hPDE8A1 in the PDE screen at 1.0 µM
# [31] = biological target: Melanocortin receptor 4 (Homo sapiens) (UniProt P32245); experiment: MC4 Eurofins-Cerep binding assay; set-up: ligand concentration 0.05 nM; details: filed as agonist, Compound concentration 10.0 uM
# Mus musculus = species on record: Mus musculus; experiment: sst (non-selective) Eurofins-Cerep binding assay; format: protein assay; set-up: ligand concentration 0.05 nM; details: filed as agonist, Compound concentration 10.0 uM
compound,measurement,setting,value
Cc1cc(C(=O)N2CC[C@@H](C)[C@H](c3cc(C(F)F)nc4ncnn34)C2)cc(C)n1,residual activity,[1],96.8%
same,residual activity,[2],103%
same,residual activity,[3],108%
same,residual activity,[4],115%
same,residual activity,[5],100%
same,IC50,[6],> 10 µM (not active)
same,residual activity,Rattus norvegicus [7],104%
same,IC50,[8],> 10 µM (not active)
same,residual activity,[9],104%
same,residual activity,[10],103%
same,residual activity,[11],94%
same,residual activity,[12],118%
same,residual activity,[13],97.3%
same,residual activity,[14],96%
same,residual activity,[15],102%
same,residual activity,[16],104%
same,residual activity,[17],104%
same,residual activity,[18],105%
same,residual activity,[19],111%
same,residual activity,[20],109%
same,residual activity,[21],99%
same,residual activity,[22],103%
same,residual activity,[23],95.3%
same,residual activity,Rattus norvegicus [24],105%
same,IC50,[25],> 10 µM (not active)
same,IC50,[26],0.0009 µM (active)
same,residual activity,[27],104%
same,residual activity,[28],91%
same,residual activity,[29],92.8%
same,IC50,[30],> 10 µM (not active)
same,residual activity,[31],111%
same,residual activity,Mus musculus,122%
